According to the supplement of paper PMC8253809:

Legend:
Assay in all cases: growth inhibition relative to DMSO (0) and positive control (1) (fraction); higher = more growth inhibition
HGGX42 [1] = system: HGGX42 (H3.3 G34R paediatric high-grade glioma line)
Procedure: (§1)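 Single-agent arm (compound 1 only) of the paxalisib / mirdametinib dose-matrix plates, 7 days, adherent 384-well. CellTiter-Glo RLU was normalised to fractional activity between DMSO (0) and the positive control (1).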

iASTRO [2] = system: iASTRO (astrocyte control)
Procedure: as §1

DIPGX29 [3] = system: DIPGX29 (H3.3 K27M diffuse intrinsic pontine glioma line)
Procedure: as §1

HGGX6 [4] = system: HGGX6 (H3.3 G34R paediatric high-grade glioma line)
Procedure: as §1

DIPGX7 [5] = system: DIPGX7 (H3.3 K27M diffuse intrinsic pontine glioma line)
Procedure: as §1

HABS [6] = system: HABS (astrocyte control)
Procedure: as §1

DIPGX37 [7] = system: DIPGX37 (H3.3 K27M diffuse intrinsic pontine glioma line)
Procedure: as §1

HGGX42 [8] = system: HGGX42; remark: listed apart in the source
Procedure: (§2)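 Single-agent arm (compound 2 only) of the paxalisib / mirdametinib dose-matrix plates, 7 days, adherent 384-well. CellTiter-Glo RLU was normalised to fractional activity between DMSO (0) and the positive control (1).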

iASTRO [9] = system: iASTRO; remark: listed apart in the source
Procedure: as §2

DIPGX29 [10] = system: DIPGX29; remark: listed apart in the source
Procedure: as §2

HGGX6 [11] = system: HGGX6; remark: listed apart in the source
Procedure: as §2

DIPGX7 [12] = system: DIPGX7; remark: listed apart in the source
Procedure: as §2

HABS [13] = system: HABS; remark: listed apart in the source
Procedure: as §2

DIPGX37 [14] = system: DIPGX37; remark: listed apart in the source
Procedure: as §2

O=C(NOC[C@H](O)CO)c1ccc(F)c(F)c1Nc1ccc(I)cc1F
growth inhibition
Settings	0.009766 µM	0.01953 µM	0.03906 µM	0.07812 µM	0.15625 µM	0.3125 µM	0.625 µM	1.25 µM	5 µM	20 µM
DIPGX7 [5]	0.00514	-0.0128	-0.0429	-0.0583	-0.0706	-0.0675	-0.0189	0.069	0.226	0.169
DIPGX7 [12]	–	–	-0.134	-0.0334	-0.0318	-0.00916	0.0291	0.0919	0.221	0.144
DIPGX29 [3]	0.0664	0.079	0.113	0.122	0.121	0.185	0.301	0.44	0.787	0.903
DIPGX29 [10]	–	–	0.0243	0.134	0.108	0.159	0.301	0.477	0.795	0.903
DIPGX37 [7]	-0.0815	-0.107	-0.0915	-0.0274	0.0635	0.18	0.339	0.511	0.9225	0.9749
DIPGX37 [14]	–	–	-0.168	-0.0488	0.038	0.147	0.274	0.418	0.857	0.9777
HABS [6]	-0.13	-0.164	-0.228	-0.269	-0.234	-0.0414	0.126	0.275	0.665	0.853
HABS [13]	–	–	-0.334	-0.268	-0.258	-0.201	-0.0364	0.168	0.618	0.797
HGGX6 [4]	-0.059	-0.035	-0.0725	-0.0513	-0.0455	0.0143	0.0902	0.0994	0.353	0.581
HGGX6 [11]	–	–	-0.174	-0.0709	-0.0557	0.064	0.133	0.156	0.414	0.596
HGGX42 [1]	-0.0885	-0.0961	-0.107	-0.127	-0.145	-0.165	-0.133	-0.126	0.241	0.441
HGGX42 [8]	–	–	-0.199	-0.114	-0.121	-0.215	-0.198	-0.0799	0.284	0.494
iASTRO [2]	0.0411	0.0442	0.0806	0.0816	0.113	0.124	0.173	0.119	0.0668	0.0562
iASTRO [9]	–	–	0.0464	0.0732	0.0675	0.0849	0.116	0.0295	0.0268	0.058
